Test results taken from patent publication US10645928B2, “Pesticidally active polycyclic derivatives with sulfur containing substituents” (Syngenta Participations AG, priority 2014, dated 2020).

Tests used:
[1] = test system: Diabrotica balteata (Corn Root Worm); experiment: Example B2: Diabrotica balteata, sprayed maize sprouts, mortality and growth inhibition; type: in vivo; details: 96 h, application rate of 200 ppm, L2 larvae, 4 days after infestation, read-out: effect in at least one of the two categories (mortality or growth inhibition)
Protocol: (§1) Maize sprouts placed onto an agar layer in 24-well microtiter plates were treated with aqueous test solutions prepared from 10,000 ppm DMSO stock solutions by spraying. After drying, the plates were infested with L2 larvae (6 to 10 per well). The samples were assessed for mortality and growth inhibition in comparison to untreated samples 4 days after infestation.

[2] = test system: Plutella xylostella (Diamond Back Moth); experiment: Example B13: Plutella xylostella, treated artificial diet, mortality and growth inhibition; type: in vivo; details: 120 h, application rate of 200 ppm, L2 larvae, 5 days after infestation, read-out: effect in at least one of the two categories (mortality or growth inhibition)
Protocol: (§2) 24-well microtiter plates with artificial diet were treated with aqueous test solutions prepared from 10,000 ppm DMSO stock solutions by pipetting. After drying, the plates were infested with L2 larvae (10 to 15 per well). The samples were assessed for mortality and growth inhibition in comparison to untreated samples 5 days after infestation.

[3] = test system: Plutella xylostella (Diamond Back Moth); experiment: Example B12: Plutella xylostella, treated artificial diet, mortality; type: in vivo; details: 120 h, application rate of 200 ppm, L2 larvae, 5 days after infestation
Protocol: 24-well microtiter plates with artificial diet were treated with aqueous test solutions prepared from 10,000 ppm DMSO stock solutions by pipetting. After drying, the plates were infested with L2 larvae (10 to 15 per well). The samples were assessed for mortality 5 days after infestation.

[4] = test system: Spodoptera littoralis (Egyptian Cotton Leaf Worm); experiment: Example B20: Spodoptera littoralis, compound in agar absorbed by lettuce roots, mortality; type: in vivo; details: 144 h, test rate of 12.5 ppm, uptake by lettuce roots, Spodoptera eggs, 6 days after infestation
From the text: Test compounds were applied by pipette prepared from 10,000 ppm DMSO stock solutions into 24-well plates and mixed with agar. Lettuce seeds were placed onto the agar and the multi well plate was closed by another plate which contained also agar. After 7 days the compound was absorbed by the roots and the lettuce grew into the lid plate. The lettuce leaves were then cut off into the lid plate.
Spodoptera eggs were pipetted through a plastic stencil onto a humid gel blotting paper and the lid plate was closed with it. The samples were assessed for mortality 6 days after infestation.

[5] = test system: Spodoptera littoralis (Egyptian Cotton Leaf Worm); experiment: Example B19: Spodoptera littoralis, compound in agar absorbed by lettuce roots, anti-feedant effect; type: in vivo; details: 144 h, test rate of 12.5 ppm, uptake by lettuce roots, Spodoptera eggs, 6 days after infestation, read-out: anti-feeding
From the text: (§3) Test compounds were applied by pipette prepared from 10,000 ppm DMSO stock solutions into 24-well plates and mixed with agar. Lettuce seeds were placed onto the agar and the multi well plate was closed by another plate which contained also agar. After 7 days the compound was absorbed by the roots and the lettuce grew into the lid plate. The lettuce leaves were then cut off into the lid plate. Spodoptera eggs were pipetted through a plastic stencil onto a humid gel blotting paper and the lid plate was closed with it. The samples were assessed for anti-feedant effect in comparison to untreated samples 6 days after infestation.

[6] = test system: Diabrotica balteata (Corn Root Worm); experiment: Example B3: Diabrotica balteata, sprayed maize sprouts, mortality; type: in vivo; details: 96 h, application rate of 200 ppm, L2 larvae, 4 days after infestation
Protocol: as §1, with “mortality” for “mortality and growth inhibition in comparison to untreated samples”

[7] = test system: Spodoptera littoralis (Egyptian Cotton Leaf Worm); experiment: Example B17: Spodoptera littoralis, sprayed cotton leaf discs, mortality, anti-feeding effect and growth inhibition; type: in vivo; details: foliar, 72 h, application rate of 200 ppm, L1 larvae, 3 days after infestation, read-out: control (at least one of mortality, anti-feedant effect, growth inhibition)
Protocol: (§4) Cotton leaf discs were placed onto agar in 24-well microtiter plates and sprayed with aqueous test solutions prepared from 10,000 ppm DMSO stock solutions. After drying the leaf discs were infested with five L1 larvae. The samples were assessed for mortality, anti-feeding effect, and growth inhibition in comparison to untreated samples 3 days after infestation. Control of Spodoptera littoralis by a test sample is given when at least one of the categories mortality, anti-feedant effect, and growth inhibition is higher than the untreated sample.

[8] = test system: Spodoptera littoralis (Egyptian Cotton Leaf Worm); experiment: Example B18: Spodoptera littoralis, compound in agar absorbed by lettuce roots, mortality, anti-feedant effect and growth inhibition; type: in vivo; details: 144 h, test rate of 12.5 ppm, uptake by lettuce roots, Spodoptera eggs, 6 days after infestation, read-out: effect in at least one of the three categories (mortality, anti-feeding, or growth inhibition)
From the text: as §3, with “pipette” for “pipette prepared”, “for mortality,” for “for”, “effect and growth inhibition” for “effect”

[9] = test system: Euschistus heros (Neotropical Brown Stink Bug); experiment: Example B4: Euschistus heros, sprayed soybean leaves, growth inhibition; type: in vivo; details: 120 h, application rate of 200 ppm, N2 nymphs, 5 days after infestation
Protocol: Soybean leaves on agar in 24-well microtiter plates were sprayed with aqueous test solutions prepared from 10,000 ppm DMSO stock solutions. After drying the leaves were infested with N2 nymphs. The samples were assessed for growth inhibition in comparison to untreated samples 5 days after infestation. Control of Euschistus heros by a test sample is given when the growth inhibition is higher than the untreated sample.

[10] = test system: Frankliniella occidentalis (Western Flower Thrips); experiment: Example B7: Frankliniella occidentalis, sprayed sunflower leaf discs, mortality; type: in vivo; details: foliar, 168 h, application rate of 200 ppm, population of mixed ages, 7 days after infestation
Protocol: Sunflower leaf discs were placed on agar in 24-well microtiter plates and sprayed with aqueous test solutions prepared from 10,000 DMSO stock solutions. After drying the leaf discs were infested with a Frankliniella population of mixed ages. The samples were assessed for mortality 7 days after infestation.

[11] = test system: Spodoptera littoralis (Egyptian Cotton Leaf Worm); experiment: Example B14: Spodoptera littoralis, sprayed cotton leaf discs, anti-feeding effect; type: in vivo; details: foliar, 72 h, application rate of 200 ppm, L1 larvae, 3 days after infestation
Protocol: as §4, with “for” for “for mortality,”, “effect” for “effect, and growth inhibition”, “when” for “when at least one of”, “the” for “the categories mortality,”

[12] = test system: Euschistus heros (Neotropical Brown Stink Bug); experiment: Example B6: Euschistus heros, sprayed soybean leaves, mortality and growth inhibition; type: in vivo; details: 120 h, application rate of 200 ppm, N2 nymphs, 5 days after infestation, read-out: effect in at least one of the two categories (mortality or growth inhibition)
Protocol: Soybean leaves on agar in 24-well microtiter plates were sprayed with aqueous test solutions prepared from 10,000 ppm DMSO stock solutions. After drying the leaves were infested with N2 nymphs. The samples were assessed for mortality and growth inhibition in comparison to untreated samples 5 days after infestation.

[13] = test system: Euschistus heros (Neotropical Brown Stink Bug); experiment: Example B5: Euschistus heros, sprayed soybean leaves, mortality; type: in vivo; details: 120 h, application rate of 200 ppm, N2 nymphs, 5 days after infestation
Protocol: Soybean leaves on agar in 24-well microtiter plates were sprayed with aqueous test solutions prepared from 10,000 ppm DMSO stock solutions. After drying the leaves were infested with N2 nymphs. The samples were assessed for mortality 5 days after infestation.

[14] = test system: Spodoptera littoralis (Egyptian Cotton Leaf Worm); experiment: Example B16: Spodoptera littoralis, sprayed cotton leaf discs, mortality; type: in vivo; details: foliar, 72 h, application rate of 200 ppm, L1 larvae, 3 days after infestation
Protocol: Cotton leaf discs were placed onto agar in 24-well microtiter plates and sprayed with aqueous test solutions prepared from 10,000 ppm DMSO stock solutions. After drying the leaf discs were infested with five L1 larvae. The samples were assessed for mortality 3 days after infestation.

[15] = test system: Tetranychus urticae (Two-Spotted Spider Mite); experiment: Example B21: Tetranychus urticae, sprayed bean leaf discs, mortality; type: in vivo; details: foliar, 192 h, application rate of 200 ppm, mixed population (mobile stages), 8 days after infestation
Protocol: Bean leaf discs on agar in 24-well microtiter plates were sprayed with aqueous test solutions prepared from 10,000 ppm DMSO stock solutions. After drying the leaf discs were infested with a mite population of mixed ages. The samples were assessed for mortality on mixed population (mobile stages) 8 days after infestation.

[16] = test system: Plutella xylostella (Diamond Back Moth); experiment: Example B10: Plutella xylostella, treated artificial diet, growth inhibition; type: in vivo; details: 120 h, application rate of 200 ppm, L2 larvae, 5 days after infestation
Protocol: as §2, with “for” for “for mortality and”, “infestation. Control of Plutella xylostella by a test sample is given when the growth inhibition is higher than the untreated sample.” for “infestation.”

[17] = test system: Aedes aegypti (Yellow Fever Mosquito); experiment: Example B23: Aedes aegypti, dry deposits in 12 well tissue culture plates, control; type: in vivo; details: application rate of 200 ppm in ethanol, adult females, after 48 h and/or 24 h
Protocol: Test solutions, at an application rate of 200 ppm in ethanol, were applied to 12 well tissue culture plates. Once the deposits were dry, five, two to five day old adult female Aedes aegypti were added to each well, and sustained with a 10% sucrose solution in a cotton wool plug. Assessment of knockdown was made one hour after introduction, and mortality was assessed at 24 and 48 hours after introduction.

[18] = test system: Myzus persicae (Green Peach Aphid); experiment: Example B8: Myzus persicae, sprayed sunflower leaf discs, mortality; type: in vivo; details: foliar, 144 h, application rate of 200 ppm, leaf disc spray, aphid population of mixed ages, 6 days after infestation
Protocol: Sunflower leaf discs were placed onto agar in a 24-well microtiter plate and sprayed with aqueous test solutions prepared from 10,000 ppm DMSO stock solutions. After drying, the leaf discs were infested with an aphid population of mixed ages. The samples were assessed for mortality 6 days after infestation.

[19] = test system: Spodoptera littoralis (Egyptian Cotton Leaf Worm); experiment: Example B15: Spodoptera littoralis, sprayed cotton leaf discs, growth inhibition; type: in vivo; details: foliar, 72 h, application rate of 200 ppm, L1 larvae, 3 days after infestation, read-out: control (growth inhibition)
Protocol: as §4, with “for” for “for mortality, anti-feeding effect, and”, “when” for “when at least one of”, “the” for “the categories mortality, anti-feedant effect, and”

[20] = test system: Myzus persicae (Green Peach Aphid); experiment: Example B9: Myzus persicae, roots of pea seedlings in test solution, mortality; type: in vivo; details: 144 h, test rate of 24 ppm, 6 days
Protocol: Roots of pea seedlings infested with an aphid population of mixed ages were placed directly into aqueous test solutions prepared from 10,000 DMSO stock solutions. The samples were assessed for mortality 6 days after placing seedlings into test solutions.

SMILES | percent effect (mortality or growth inhibition) at 200 ppm [1] [%] | percent effect (mortality or growth inhibition) at 200 ppm [2] [%] | mortality at 200 ppm [3] [%] | mortality at 12.5 ppm [4] [%] | pest or weed control at 12.5 ppm [5] [%] | mortality at 200 ppm [6] [%] | percent control (mortality, anti-feedant effect or growth inhibition) at 200 ppm [7] [%] | percent effect (mortality, anti-feeding or growth inhibition) at 12.5 ppm [8] [%] | inhibition at 200 ppm [9] [%] | pest or weed control at 200 ppm [11] [%] | percent effect (mortality or growth inhibition) at 200 ppm [12] [%] | mortality at 200 ppm [13] [%] | mortality at 200 ppm [14] [%] | inhibition at 200 ppm [16] [%] | mortality at 200 ppm [18] [%] | other results
CCS(=O)(=O)c1cc(-c2ccc(Cl)cc2)cnc1-c1cn2cnc(C(F)(F)F)cc2n1 [Compound P5, 2-[5-(4-chlorophenyl)-3-ethylsulfonyl-2-pyridyl]-7-(trifluoromethyl)imidazo [1,2-c]pyrimidine] | ≥ 80 | ≥ 80 | ≥ 80 | ≥ 80 | ≥ 80 | ≥ 80 | ≥ 80 | ≥ 80 | ≥ 80 | ≥ 80 | ≥ 80 | ≥ 80 | ≥ 80 |  |  | mortality at 200 ppm [10]: ≥ 80%
CCS(=O)(=O)c1cc(-c2cc(F)cc(F)c2)cnc1-c1cn2cnc(C(F)(F)F)cc2n1 [Compound P14] | ≥ 80 | ≥ 80 | ≥ 80 | ≥ 80 | ≥ 80 | ≥ 80 | ≥ 80 | ≥ 80 |  | ≥ 80 | ≥ 80 | ≥ 80 | ≥ 80 | ≥ 80 | ≥ 80 | mortality at 200 ppm [15]: ≥ 80%; pest or weed control at 200 ppm [17]: ≥ 80%
CCS(=O)(=O)c1cc(C2(C#N)CC2)cnc1-c1cn2cnc(C(F)(F)F)cc2n1 [Compound P8, 1-[5-ethylsulfonyl-6-[7-(trifluoromethyl)imidazo[1,2-c]pyrimidin-2-yl]-3-pyridyl]cyclopropanecarbonitrile] | ≥ 80 | ≥ 80 | ≥ 80 |  |  | ≥ 80 | ≥ 80 |  | ≥ 80 | ≥ 80 | ≥ 80 | ≥ 80 | ≥ 80 | ≥ 80 | ≥ 80 | inhibition at 200 ppm [19]: ≥ 80%
C=Cc1cnc(-c2cn3cnc(C(F)(F)F)cc3n2)c(S(=O)(=O)CC)c1 [Example H6, 2-(3-ethylsulfonyl-5-vinyl-2-pyridyl)-7-(trifluoromethyl)imidazo[1,2-c]pyrimidine] |  |  |  |  |  |  |  |  |  |  |  |  |  |  |  | melting point: 174 to 176 °C
CCS(=O)(=O)c1cc(CC#N)cnc1-c1cn2cnc(C(F)(F)F)cc2n1 [Compound P30, 2-[5-ethylsulfonyl-6-[7-(trifluoromethyl)imidazo[1,2-c]pyrimidin-2-yl]-3-pyridyl]acetonitrile] | ≥ 80 | ≥ 80 |  |  |  | ≥ 80 |  |  |  |  | ≥ 80 | ≥ 80 |  | ≥ 80 |  | mortality at 24 ppm [20]: ≥ 80%
